CCOC(=O)C1=C(C)NC(C)=C(C(=O)OCC)C1
Details | solubility (mole fraction)
in 2-butanone, 272.15 K | 0.00182
in 2-butanone, 278.15 K | 0.00274
in 2-butanone, 283.15 K | 0.00382
in 2-butanone, 288.15 K | 0.00525
in 2-butanone, 293.15 K | 0.00717
in 2-butanone, 298.15 K | 0.00965
in 2-butanone, 303.35 K | 0.013
in 2-butanone, 308.25 K | 0.0171
in 2-butanone, 313.15 K | 0.0222
in 2-butanone, 318.15 K | 0.0288
in 2-butanone, 323.65 K | 0.038
in 2-pentanone, 272.15 K | 0.00169
in 2-pentanone, 278.15 K | 0.00255
in 2-pentanone, 283.15 K | 0.00353
in 2-pentanone, 288.15 K | 0.00485
in 2-pentanone, 293.15 K | 0.00657
in 2-pentanone, 298.15 K | 0.00881
in 2-pentanone, 303.35 K | 0.0119
in 2-pentanone, 308.25 K | 0.0155
in 2-pentanone, 313.15 K | 0.0202
in 2-pentanone, 318.15 K | 0.026
in 2-pentanone, 323.65 K | 0.0345
in acetone, 272.15 K | 0.00112
in acetone, 278.15 K | 0.00165
in acetone, 283.15 K | 0.00225
in acetone, 288.15 K | 0.00304
in acetone, 293.15 K | 0.00407
in acetone, 298.15 K | 0.0054
in acetone, 303.35 K | 0.00718
in acetone, 308.25 K | 0.00926
in acetone, 313.15 K | 0.0119
in acetone, 318.15 K | 0.0152
in acetone, 323.65 K | 0.02
in acetonitrile, 272.15 K | 0.000235
in acetonitrile, 278.15 K | 0.000356
in acetonitrile, 283.15 K | 0.000495
in acetonitrile, 288.15 K | 0.000687
in acetonitrile, 293.15 K | 0.000931
in acetonitrile, 298.15 K | 0.00126
in acetonitrile, 303.35 K | 0.0017
in acetonitrile, 308.25 K | 0.00224
in acetonitrile, 313.15 K | 0.00291
in acetonitrile, 318.15 K | 0.0038
in acetonitrile, 323.65 K | 0.00503
in ethanol, 272.15 K | 0.000414
in ethanol, 277.95 K | 0.000587
in ethanol, 283.15 K | 0.000795
in ethanol, 288.15 K | 0.00105
in ethanol, 293.05 K | 0.00137
in ethanol, 298.15 K | 0.00179
in ethanol, 303.15 K | 0.00232
in ethanol, 308.05 K | 0.00294
in ethanol, 312.35 K | 0.00362
in ethanol, 318.15 K | 0.00472
in ethanol, 323.15 K | 0.0059
in ethyl acetate, 272.15 K | 0.00135
in ethyl acetate, 278.15 K | 0.00195
in ethyl acetate, 283.15 K | 0.00261
in ethyl acetate, 288.15 K | 0.00345
in ethyl acetate, 293.15 K | 0.00453
in ethyl acetate, 298.15 K | 0.00588
in ethyl acetate, 303.35 K | 0.00767
in ethyl acetate, 308.25 K | 0.00977
in ethyl acetate, 313.15 K | 0.0123
in ethyl acetate, 318.15 K | 0.0155
in ethyl acetate, 323.65 K | 0.0198
in ethyl formate, 272.15 K | 0.00082
in ethyl formate, 278.15 K | 0.00117
in ethyl formate, 283.15 K | 0.00155
in ethyl formate, 288.15 K | 0.00204
in ethyl formate, 293.15 K | 0.00266
in ethyl formate, 298.15 K | 0.00343
in ethyl formate, 303.35 K | 0.00444
in ethyl formate, 308.25 K | 0.00562
in ethyl formate, 313.15 K | 0.00703
in ethyl formate, 318.15 K | 0.00881
in ethyl formate, 323.65 K | 0.0112
in isobutanol, 272.15 K | 0.000707
in isobutanol, 277.95 K | 0.00106
in isobutanol, 283.15 K | 0.00151
in isobutanol, 288.15 K | 0.00209
in isobutanol, 293.05 K | 0.00283
in isobutanol, 298.15 K | 0.00386
in isobutanol, 303.15 K | 0.00517
in isobutanol, 308.05 K | 0.00684
in isobutanol, 312.35 K | 0.00863
in isobutanol, 318.15 K | 0.0117
in isobutanol, 323.15 K | 0.0152
in isopentanol, 272.15 K | 0.000677
in isopentanol, 277.95 K | 0.000996
in isopentanol, 283.15 K | 0.00139
in isopentanol, 288.15 K | 0.00189
in isopentanol, 293.05 K | 0.00254
in isopentanol, 298.15 K | 0.00341
in isopentanol, 303.15 K | 0.0045
in isopentanol, 308.05 K | 0.00587
in isopentanol, 312.35 K | 0.00738
in isopentanol, 318.15 K | 0.00989
in isopentanol, 323.15 K | 0.0126
in isopropanol, 272.15 K | 0.000462
in isopropanol, 277.95 K | 0.00066
in isopropanol, 283.15 K | 0.000904
in isopropanol, 288.15 K | 0.0012
in isopropanol, 293.05 K | 0.00158
in isopropanol, 298.15 K | 0.00208
in isopropanol, 303.15 K | 0.00269
in isopropanol, 308.05 K | 0.00344
in isopropanol, 312.35 K | 0.00424
in isopropanol, 318.15 K | 0.00557
in isopropanol, 323.15 K | 0.00702
in methanol, 272.15 K | 0.000246
in methanol, 277.95 K | 0.000355
in methanol, 283.15 K | 0.000486
in methanol, 288.15 K | 0.000655
in methanol, 293.05 K | 0.000865
in methanol, 298.15 K | 0.00114
in methanol, 303.15 K | 0.0015
in methanol, 308.05 K | 0.00192
in methanol, 312.35 K | 0.00238
in methanol, 318.15 K | 0.00315
in methanol, 323.15 K | 0.004
in methyl acetate, 272.15 K | 0.00103
in methyl acetate, 278.15 K | 0.00146
in methyl acetate, 283.15 K | 0.00192
in methyl acetate, 288.15 K | 0.00251
in methyl acetate, 293.15 K | 0.00326
in methyl acetate, 298.15 K | 0.0042
in methyl acetate, 303.35 K | 0.00541
in methyl acetate, 308.25 K | 0.00679
in methyl acetate, 313.15 K | 0.00848
in methyl acetate, 318.15 K | 0.0106
in methyl acetate, 323.65 K | 0.0134
in n-butanol, 272.15 K | 0.000605
in n-butanol, 277.95 K | 0.000859
in n-butanol, 283.15 K | 0.00116
in n-butanol, 288.15 K | 0.00154
in n-butanol, 293.05 K | 0.00201
in n-butanol, 298.15 K | 0.00262
in n-butanol, 303.15 K | 0.00338
in n-butanol, 308.05 K | 0.0043
in n-butanol, 312.35 K | 0.00528
in n-butanol, 318.15 K | 0.00691
in n-butanol, 323.15 K | 0.00862
in n-pentanol, 272.15 K | 0.000647
in n-pentanol, 277.95 K | 0.000925
in n-pentanol, 283.15 K | 0.00126
in n-pentanol, 288.15 K | 0.00169
in n-pentanol, 293.05 K | 0.00221
in n-pentanol, 298.15 K | 0.00292
in n-pentanol, 303.15 K | 0.00378
in n-pentanol, 308.05 K | 0.00483
in n-pentanol, 312.35 K | 0.00597
in n-pentanol, 318.15 K | 0.00787
in n-pentanol, 323.15 K | 0.00988
in n-propanol, 272.15 K | 0.000513
in n-propanol, 277.95 K | 0.000735
in n-propanol, 283.15 K | 0.000998
in n-propanol, 288.15 K | 0.00133
in n-propanol, 293.05 K | 0.00174
in n-propanol, 298.15 K | 0.00229
in n-propanol, 303.15 K | 0.00296
in n-propanol, 308.05 K | 0.0038
in n-propanol, 312.35 K | 0.00468
in n-propanol, 318.15 K | 0.00613
in n-propanol, 323.15 K | 0.00773
in toluene, 272.15 K | 0.00015
in toluene, 278.15 K | 0.00023
in toluene, 283.15 K | 0.000323
in toluene, 288.15 K | 0.000449
in toluene, 293.15 K | 0.000618
in toluene, 298.15 K | 0.000839
in toluene, 303.35 K | 0.00114
in toluene, 308.25 K | 0.00151
in toluene, 313.15 K | 0.00198
in toluene, 318.15 K | 0.0026
in toluene, 323.65 K | 0.00346
